The source made the active and inactive calls. No cut-off for these calls is given here.

Consider eight molecules from ChEMBL document CHEMBL3091453, “Bioactive compounds from Stuhlmannia moavi from the Madagascar dry forest” (Bioorg Med Chem, 2013).

One experiment concerns Plasmodium falciparum. The experiment is described as follows: Antimalarial activity against chloroquine/mefloquine-resistant Plasmodium falciparum Dd2 after 72 hrs by SYBR Green I assay. To be noted: Dd2, 72 h. The class given is functional.
A further experiment relates to A2780. Kind of experiment: Antiproliferative activity against human A2780 cells after 2 days by Alamar Blue assay. To be noted: for IC50: A2780, 48 h. The class given is functional, cell-based. (The colour change of resazurin is a common sign of viable cells or microbes.)

In general, IC50 refers to the concentration at which inhibition is half-maximal. As to `COC1=CC(=O)c2c(O)c(C(C)=O)c(C)c(O)c2C1=O`, the concentration for half-maximal inhibition (IC50) in the experiment with Plasmodium falciparum amounted to 24 µM; with A2780, 8.1 µM.
As for `COc1ccc(/C=C2\COc3cc(O)ccc3C2=O)cc1` [BONDUCELLIN], the concentration for half-maximal inhibition (IC50) in the experiment on Plasmodium falciparum is 26 µM; in the experiment on A2780 it was 10.6 µM.
In the case of `Oc1cc(O)cc(/C=C/c2ccc(O)c(O)c2)c1` [PICEATANNOL], the concentration for half-maximal inhibition (IC50) in the experiment on A2780 turned out to be 41 µM.
`COc1cc(/C=C/c2cc(O)cc(O)c2)ccc1O`: the result with A2780 was Active.
On to `COc1cc(O)cc(/C=C/c2ccc(O)c(O)c2)c1`, for which the IC50 is 27 µM in the experiment on Plasmodium falciparum and 54 µM in the experiment on A2780.
In the experiment on Plasmodium falciparum, `C[C@@H]1CC[C@H]2[C@@H](C)C(=O)O[C@@H]3O[C@@]4(C)CC[C@@H]1[C@]32OO4` [ARTEMISININ] came in with a 50% inhibitory concentration (IC50) of 0.007 µM.
Regarding `CC(=O)O[C@H]1C(=O)[C@@]2(C)[C@H]([C@H](OC(=O)c3ccccc3)[C@]3(O)C[C@H](OC(=O)[C@H](O)[C@@H](NC(=O)c4ccccc4)c4ccccc4)C(C)=C1C3(C)C)[C@]1(OC(C)=O)CO[C@@H]1C[C@@H]2O` [PACLITAXEL], 0.024 µM corresponded to half-maximal inhibition with A2780 (IC50).
For `Oc1ccc(/C=C/c2cc(O)cc(O)c2)cc1` [RESVERATROL], the IC50 in the experiment on A2780 is 74 µM.
